Reference: PMC11050087, “Polyphenols from Maackia amurensis Heartwood Protect Neuronal Cells from Oxidative Stress and Prevent Herpetic Infection” (International Journal of Molecular Sciences, 2024)
Where “and” joins values, the source holds several entries; their conditions need not be identical. Identical values can stand only once.

Key:
[1] = tested on: HSV-1; experiment: Virucidal activity, RT-PCR assay (HSV-1 pretreated with compounds); type: cell-based, HSV-1 strain L2; details: for virucidal activity against HSV-1 by RT-PCR (in words): 0.1, 1 and 10 µg/mL; for Ct: 72 h; for −ΔCt: vs virus control; for activity at 0.1 µg/mL / activity at 1 µg/mL / activity at 10 µg/mL / log reduction at 0.1 µg/mL / log reduction at 1 µg/mL / log reduction at 10 µg/mL: Human alphaherpesvirus 1, 72 h; for activity at 0.1 µg/mL / activity at 1 µg/mL / activity at 10 µg/mL: read-out: 2^−ΔCt; for log reduction at 0.1 µg/mL / log reduction at 1 µg/mL / log reduction at 10 µg/mL: read-out: log10; for log10: log10 of 2^−ΔCt; for 2^−ΔCt: relative level of viral DNA vs virus control
Experimental: Vero cells grown on 96-well plates were infected with the virus (100 TCID50/mL), pretreated with polyphenolic compounds at concentrations 0.1, 1 and 10 μg/mL. After 72 h of cell incubation, viral DNA was extracted from the supernatants, and the relative level of HSV-1 DNA was determined using RT-PCR. The effect of polyphenols on the relative level of viral DNA was assessed using the 2^−∆Ct method and reported as fold reduction compared to virus control.
(§1) The HSV-1 strain L2 obtained from N.F. Gamaleya Federal Research Centre for Epidemiology and Microbiology (Moscow, Russia) was grown in Vero cells as previously described.
(§2) We determined the direct inhibitory effect of polyphenolic compounds from M. amurensis heartwood on HSV-1 (virucidal effect). We mixed the virus at an infectious dose (100 TCID50/mL) with polyphenolic compounds (from 0.1 to 100 µg/mL) at a ratio of 1:1 (v/v) and incubated for an hour at 37 °C. Then, we infected the monolayer of Vero cells grown on 96-well plates (1 × 10^4 cells/well) with HSV-1 pretreated with the studied compounds. After 1 h adsorption at 37 °C, the cells were washed with phosphate-buffered saline (PBS) and overlaid by the maintenance medium with 1% FBS. The plates were incubated for 72 h at 37 °C in a CO2-incubator. The cytopathic effect (CPE) inhibition assay and real-time reverse transcription-PCR (RT-PCR) assay were used to evaluate virucidal effect of the tested compounds.
We performed the RT-PCR assay as we previously described in detail in [22]. Briefly, HSV-1 DNA was extracted after incubation from cell supernatants by using the DNA-sorb-AM (K1-12-100-CE) nucleic acid extraction kit (AmpliSens®, Moscow, Russia) according to the manufacturer′s instructions. We treated the supernatants with a lysis solution that contained guanidine chloride (chaotropic agent) in the presence of sorbent (silica particles). As the elution solution was added, the DNA was […] silica particles and separated from the sorbent particles by centrifugation.
We detected the DNA of HSV-1 in the obtained samples using the AmpliSens® HSV I, II-FRT-100F PCR kit (AmpliSens®, Moscow, Russia) on a real-time PCR instrument Rotor-Gene Q (Qiagen, Hilden, Nordrhein-Westfalen, Germany) according to the manufacturer′s instructions. The PCR reaction conditions were the following: initial denaturation at 95 °C for 15 min; then 5 cycles at 95 °C for 5 s, at 60 °C for 20 s, at 72 °C for 15 s; then 40 cycles at 95 °C for 5 s, at 60 °C for 20 s, and at 72 °C for 15 s. A negative sample was used as the amplification control for each run. The threshold cycle number Ct, was measured as the PCR cycle, where the amount of the amplified target reached the threshold value; the Ct values ≥ 37 indicated the absence of the HSV-1 DNA in the samples. We assessed the anti-HSV-1 activity of the studied compounds by the reduction in the viral DNA levels using the 2^−ΔCt method according to Equation (2):(2) ΔCt=Ctcv−Cttv where Ct is the threshold cycle number measured as the PCR cycle, where the amount of the amplified target reached the threshold value, […]

[2] = tested on: 6-OHDA-treated Neuro-2a cells; experiment: 6-OHDA-induced neurotoxicity model, cell viability test (MTT); type: cell-based, murine; details: 6-OHDA 100 µM
Experimental: Neuro-2a cells were incubated with the studied polyphenolic compounds for 1 h. Then, 100 µM of 6-hydroxydopamine 6-OHDA were added. We determined the percentage of living Neuro-2a cells after treatment with 6-OHDA (Figure 4a–d).
Figure 4 The effect of polyphenolic compounds isolated from M. amurensis heartwood on the viability of Neuro-2a cells treated with 6-OHDA (100 μM) (a–d). The viability of Neuro-2a cells treated with various compounds and 6-OHDA was measured by the MTT assay. Polyphenolic compounds isolated from M. amurensis heartwood were used at concentrations 10, 1, 0.1 μM. The data are presented as means ± SEM of three independent replicates. (*) indicate p < 0.05 versus 6-OHDA-treated cells.
After 24 h of adhesion, Neuro-2a cells (5 × 10^4 cells/mL) were treated with polyphenolic compounds at concentrations of 0.1, 1 and 10 μM for 1 h. Then, 100 µM of 6-OHDA or 1 mM of PQ (Sigma-Aldrich, St. Louis, MO, USA) were added. Cells incubated without inductors or with inductors were used as positive and negative control, respectively. Cell viability was measured after 24 h using the MTT assay.

[3] = tested on: HSV-1; experiment: Virucidal activity, CPE inhibition assay (HSV-1 pretreated with compounds); type: cell-based, HSV-1 strain L2; details: for virucidal activity against HSV-1 (in words) / IC50: CPE assay; for virucidal activity against HSV-1 (in words): virus pretreated with compound; for IC50: Human alphaherpesvirus 1, virus pretreated with compound (virucidal), Vero cells, 100 TCID50/mL; for SI: ratio of CC50 to IC50, virucidal scheme
Experimental: The antiviral activity of polyphenols from M. amurensis against HSV-1 was assessed using the cytopathic effect inhibition (CPE) assay. To study the inhibitory effect of polyphenolic compounds directly on the HSV-1 virus (direct virucidal activity), the monolayer of Vero cells grown on 96-well plates (1 × 10^4 cells/well) was infected with the virus (100 TCD50/mL), pretreated with different concentrations of polyphenolic compounds.
as §1, §2
We previously described this method in detail in [22]. We performed the MTT assay to evaluate the antiviral activity of polyphenolic compounds. The viral inhibition rate (IR, %) was calculated according to Equation (1):(1) IR, %=Atv−Acv/Acd−Acv×100, where Atv is the absorbance of cells infected with HSV-1 pretreated with the studied compounds,
We calculated the selectivity index (SI) as the ratio of CC50 to IC50. Experiments were repeated three times.

[4] = tested on: 6-OHDA-treated Neuro-2a cells; experiment: Mitochondrial membrane potential detection (TMRM) in 6-OHDA-treated cells; type: cell-based, murine; details: for increase of mitochondrial membrane potential: compound 10 µM, 6-OHDA 120 µM, TMRM
Experimental: We determined the effect of polyphenolic compounds from M. amurensis on 6-OHDA-induced mitochondrial dysfunction in Neuro-2a cells (Figure 6a,b).
Figure 6 The effect of polyphenolic compounds isolated from M. amurensis heartwood on mitochondrial membrane potential in Neuro-2a cells treated with 6-OHDA (120 μM) (a,b). Polyphenolic compounds isolated from M. amurensis heartwood were used at concentrations 10, 1, 0.1 μM. The data are presented as means ± SEM of three independent replicates. (*) and (***) indicate, respectively, p < 0.05 and p < 0.001 versus 6-OHDA-treated cells.
The cells were incubated for 1 h in a 96-well plate (1 × 10^4 cells/well) with polyphenolic compounds (0.1, 1 and 10 µM). Then, 6-OHDA (120 µM) was added, and cell suspension was incubated for 1 h. Cells incubated without 6-OHDA and compounds and with 6-OHDA alone were used as positive and negative control, respectively. The tetramethylrhodamine methyl (TMRM) (Sigma-Aldrich, St. Louis, MO, USA) solution (500 nM) was added to each well and cells were incubated for 30 min at 37 °C. The intensity of fluorescence was measured using a PHERAstar FSplate reader (BMG Labtech, Ortenberg, Germany) at λex = 540 nm and λem = 590 nm. The data were processed by MARS Data Analysis v. 3.01R2 (BMG Labtech, Ortenberg, Germany).

[5] = tested on: 6-OHDA-treated Neuro-2a cells; experiment: Apoptosis profile by flow cytometry (Annexin V & Dead Cell Kit); type: cell-based, murine; details: Table 1; polyphenols 10 µM, 6-OHDA 100 µM, 24 h; mean
Experimental: We investigated the effect of polyphenolic compounds from M. amurensis on apoptosis profile in 6-OHDA-treated Neuro-2a cells by flow cytometry using fluorescent annexin V conjugate as a fluorescent dye. We observed significant changes in apoptosis profile in Neuro-2a cells after 6-OHDA-treatment. […] Polyphenols 3, 6 and 13 diminished the neurotoxic effect of 6-OHDA-treatment.
The cells were incubated for 1 h in a 6-well plate (5 × 10^4 cells/mL) with polyphenolic compounds (10 µM). Then, 6-OHDA (100 µM) was added, and cell suspension was incubated for 24 h. After incubation, the maintenance media was collected, and the cells were washed by cold PBS twice and incubated with trypsin-EDTA solution. The cell suspension was washed with cold PBS twice again, centrifugated and then used for apoptosis detection by Muse® Annexin V & Dead Cell Kit in accordance with the manufacturer’s instructions (Luminex, Austin, TX, USA). The fluorescence was measured with Muse® Cell Analyzer (Luminex, Austin, TX, USA) and the data were processed by Muse 1.5 Analysis software (Luminex, Austin, TX, USA).

COc1ccc(-c2coc3cc(O)ccc3c2=O)cc1 [Compound 8, formononetin]
virucidal activity against HSV-1 by RT-PCR (in words) [1]: did not demonstrate virucidal activity | effect on viability of 6-OHDA-treated Neuro-2a cells (in words) ([2]; compound 1 µM): increased the viability | effect on viability of 6-OHDA-treated Neuro-2a cells (in words) ([2]; compounds at 10, 1, 0.1 µM): weak effect on cell viability | virucidal activity against HSV-1 (in words) [3]: did not show virucidal activity

Oc1cc(O)cc(/C=C/c2ccc(O)c(O)c2)c1 [Compound 11, piceatannol]
increase of mitochondrial membrane potential [4]: 8–12% | Ct ([1]; 0.1 µg/mL): 18.4 ± 2.4 | −ΔCt ([1]; 0.1 µg/mL): −0.30 ± 0.03 | inhibition of HSV-1 replication by RT-PCR (in words) ([1]; 1 µg/mL): inhibited the replication of HSV-1 | Ct ([1]; 1 µg/mL): 24.5 ± 3.4 | −ΔCt ([1]; 1 µg/mL): −6.4 ± 0.8 | anti-HSV-1 activity by RT-PCR (in words) ([1]; 10 µg/mL): significantly reduced the level of viral DNA | Ct ([1]; 10 µg/mL): 30.2 ± 3.9 | −ΔCt ([1]; 10 µg/mL): −12.1 ± 1.4 | activity at 0.1 µg/mL [1]: 81.2 ± 11% | activity at 1 µg/mL [1]: 1.18 ± 0.15% | activity at 10 µg/mL [1]: 0.0228 ± 0.03% | log reduction at 0.1 µg/mL [1]: 0.09 ± 0.01 | log reduction at 1 µg/mL [1]: 1.9 ± 0.2 | log reduction at 10 µg/mL [1]: 3.6 ± 0.5 | effect on viability of 6-OHDA-treated Neuro-2a cells (in words) ([2]; compounds at 10, 1, 0.1 µM): weak effect on cell viability | IC50 [3]: 6.7 µg/mL and 27.4 µM | SI [3]: 37.3 ± 5.2

COc1c(O)cc2occ(-c3ccc(O)cc3)c(=O)c2c1O [Compound 5, tectorigenin]
virucidal activity against HSV-1 by RT-PCR (in words) [1]: did not demonstrate virucidal activity | effect on viability of 6-OHDA-treated Neuro-2a cells (in words) ([2]; compounds at 10, 1, 0.1 µM): weak effect on cell viability | virucidal activity against HSV-1 (in words) [3]: did not show virucidal activity

COc1ccc(C2(O)COc3cc(O)ccc3C2=O)c(O)c1 (racemic) [Compound 12, (±)-3-hydroxyvestitone]
virucidal activity against HSV-1 by RT-PCR (in words) [1]: did not demonstrate virucidal activity | effect on viability of 6-OHDA-treated Neuro-2a cells (in words) ([2]; compound 1 µM): increased the viability | virucidal activity against HSV-1 (in words) [3]: did not show virucidal activity

O=c1c(-c2ccc(O)cc2)coc2cc(O)cc(O)c12 [Compound 2, genistein]
Ct ([1]; 0.1 µg/mL): 18.1 ± 2.2 | −ΔCt ([1]; 0.1 µg/mL): 0 | Ct ([1]; 1 µg/mL): 18.4 ± 2.4 | −ΔCt ([1]; 1 µg/mL): −0.30 ± 0.03 | anti-HSV-1 activity by RT-PCR (in words) ([1]; 10 µg/mL): moderate anti-HSV-1 activity | Ct ([1]; 10 µg/mL): 22.4 ± 2.4 | −ΔCt ([1]; 10 µg/mL): −4.3 ± 0.5 | activity at 0.1 µg/mL [1]: 100% | activity at 1 µg/mL [1]: 81.2 ± 11% | activity at 10 µg/mL [1]: 5.08 ± 0.61% | log reduction at 0.1 µg/mL [1]: 0 | log reduction at 1 µg/mL [1]: 0.09 ± 0.01 | log reduction at 10 µg/mL [1]: 1.3 ± 0.2 | IC50 [3]: 16.7 µg/mL and 61.9 µM

NCCc1cc(O)c(O)cc1O [Compound 6-OHDA, 6-hydroxydopamine, reference compound]
decrease of TMRM fluorescence after treatment of Neuro-2a cells with 6-OHDA ([4]; 6-OHDA alone): 14% | Dead [5]: 1.11 ± 0.37% | Early apop. [5]: 42.62% and 42.62 ± 2.3% | Late apop./Dead [5]: 12.15% and 12.15 ± 1.34% | Live [5]: 44.14 ± 1.34%

medicarpin [Compound 7]
increase of mitochondrial membrane potential [4]: 8–12% | Ct ([1]; 0.1 µg/mL): 18.1 ± 2.2 | log10 ([1]; 0.1 µg/mL): 0 | 2^−ΔCt ([1]; 0.1 µg/mL): 1.0 | −ΔCt ([1]; 0.1 µg/mL): 0 | Ct ([1]; 1 µg/mL): 18.3 ± 2.2 | log10 ([1]; 1 µg/mL): −0.060 ± 0.008 | 2^−ΔCt ([1]; 1 µg/mL): 0.870 ± 0.11 | −ΔCt ([1]; 1 µg/mL): −0.20 ± 0.02 | anti-HSV-1 activity by RT-PCR (in words) ([1]; 10 µg/mL): moderate anti-HSV-1 activity | Ct ([1]; 10 µg/mL): 19.8 ± 2.4 | log10 ([1]; 10 µg/mL): −0.50 ± 0.06 | 2^−ΔCt ([1]; 10 µg/mL): 0.297 ± 0.04 | −ΔCt ([1]; 10 µg/mL): −1.75 ± 0.20 | effect on viability of 6-OHDA-treated Neuro-2a cells (in words) ([2]; compounds at 10, 1, 0.1 µM): weak effect on cell viability | SI [3]: 2.1 ± 0.3
